Experimental data as given in patent US6888003B2, “Method for producing 7-(pyrazole-3-yl) benzoxazoles” (BASF Aktiengesellschaft, priority 2000, dated 2005).

Columns and labels:
Experiment in all cases: Greenhouse herbicidal post-emergence test
[1] = system: AMARE; type: in vivo, velvet leaf; details: application rate 31.3 g/ha
Source text: (§1) The culture containers used were plastic pots containing loamy sand with approximately 3.0% of humus as the substrate. The seeds of the test plants were sown separately for each species. For the post-emergence treatment, the test plants were first grown to a height of 3 to 15 cm, depending on the plant form, and only then treated with the active compounds which had been suspended or emulsified in water. For this purpose, the test plants were either sown directly and grown in the same containers, or they were first grown separately as seedlings and transplanted into the test containers a few days prior to treatment. The application rate for the post-emergence treatment was 31.3 g of a.s./ha. Depending on the species, the plants were kept at 10-25° C. or 20-35° C. The test period extended over 2 to 4 weeks. During this time, the plants were tended, and their response to the individual treatments was evaluated. The evaluation was carried out using a scale from 0 to 100. 100 means no emergence of the plants, or complete destruction of at least the above-ground parts, and 0 means no damage, or normal course of growth. The plants used in the greenhouse experiments were composed of the following species: [table]

[2] = system: SETFA; type: in vivo, giant foxtail
Source text: as §1, with “The application rate for the post-emergence treatment was 31.3 g of a.s./ha.” left out

[3] = system: BRAPL; type: in vivo, marmalade grass
Source text: as §1, with “The application rate for the post-emergence treatment was 31.3 g of a.s./ha.” left out

[4] = system: CHEAL; type: in vivo, lamb's-quarters; details: application rate 31.3 g/ha
Source text: as §1

Cn1nc(-c2c(F)cc(Cl)c(N)c2Br)c(Cl)c1OC(F)F [IVa.1, 2-bromo-4-fluoro-6-chloro-3-(4-chloro-5-difluoromethoxy-1-methyl-1H-pyrazol-3-yl)aniline]
herbicidal post-emergence activity against AMARE [1]: very good
herbicidal post-emergence activity against SETFA ([2]; application rate 15.6 g/ha): very good to good
herbicidal post-emergence activity against SETFA ([2]; application rate 31.3 g/ha): very good
herbicidal post-emergence activity against BRAPL ([3]; application rate 15.6 g/ha): very good
herbicidal post-emergence activity against BRAPL ([3]; application rate 31.3 g/ha): very good
herbicidal post-emergence activity against CHEAL [4]: very good
